Design in all cases: species or system bacteria; CLSI broth microdilution MIC, no visible growth
(In general: In broth dilution the organism is exposed to a series of concentrations in liquid medium.)

One experiment relates to T1, Escherichia coli ec309.
T1 construct: ec309
Description: microbe, parasite or virus in culture.

Experiment [1] concerns T2, Escherichia coli ATCC 35218.
T2 construct: ATCC 35218
The experiment in a line: microbe, parasite or virus in culture.

Experiment [2] concerns T3, Escherichia coli 95882 CW-2011.
T3 construct: 95882 CW-2011
Description: microbe, parasite or virus in culture.

A further experiment deals with T4, Escherichia coli ec302.
T4 construct: ec302
Description: microbe, parasite or virus in culture.

In another experiment the test system is T5, Escherichia coli ec310.
T5 construct: ec310
The experiment in a line: microbe, parasite or virus in culture.

For experiment [3], the system named is T6, Escherichia coli 70122 CW-2007.
T6 construct: 70122 CW-2007
Description: microbe, parasite or virus in culture.

The subject of experiment [4] is T7, Escherichia coli ATCC BAA2471.
T7 construct: ATCC BAA-2471
Description: microbe, parasite or virus in culture.

For another experiment, the system named is T8, Escherichia coli ec305.
T8 construct: ec305
Description: microbe, parasite or virus in culture.

The subject of another experiment is T9, Escherichia coli ec308.
T9 construct: ec308
Description: microbe, parasite or virus in culture.

A further experiment concerns T10, E. coli ATCC 25922.
T10 construct: ATCC 25922
The experiment in a line: microbe, parasite or virus in culture. As to conditions: Escherichia coli.

In experiment [5] the test system is T11, Citrobacterfreundii ATCC 8090.
T11 construct: ATCC 8090
The experiment in a line: organism not typed. As to conditions: read-out: Table 5 IMI MIC.

≈ marks a conversion by molar mass, not a printed value. Read-outs that look alike come from different tables or passages of the source. Where a SMILES comes first, the peptide text is derived from it. Bridges are numbered along the chain shown (N, C = ends). [ ]: non-standard residue; d: D form. The star is where a group is joined. Heptanoyl(5-Me) = CCC(C)CCCC(=O)*; Dab = NCC[C@H](N)C(=O)O

Turning to `O=C1CN(/N=C/c2ccc([N+](=O)[O-])o2)C(=O)N1` [NIT, nitrofurantoin], the MIC is 16 µg/mL (≈ 67.2 µM) with Escherichia coli ec309 (EC309, read-out: NIT MIC); 0.25 µg/mL (≈ 1.05 µM) in experiment [1] (ATCC35218, read-out: NIT MIC); 8 µg/mL (≈ 33.6 µM) in [2] (95882CW2011, read-out: NIT MIC); 16 µg/mL (≈ 67.2 µM) with Escherichia coli ec302 (EC302, read-out: NIT MIC); 8 µg/mL (≈ 33.6 µM) with Escherichia coli ec310 (EC310, read-out: NIT MIC); 32 µg/mL (≈ 134 µM) in experiment [3] (70122CW2007, read-out: NIT MIC). Besides, the MIC in [4] (ATCCBAA2471, read-out: NIT MIC) turned out to be 32 µg/mL (≈ 134 µM); in the experiment with Escherichia coli ec305 (EC305, read-out: NIT MIC), 8 µg/mL (≈ 33.6 µM); in the experiment on Escherichia coli ec308 (EC308, read-out: NIT MIC), 8 µg/mL (≈ 33.6 µM); in the experiment with E. coli ATCC 25922 (ATCC25922, read-out: NIT MIC), 8 µg/mL (≈ 33.6 µM).
On to `CCC(C)CCCC(=O)N[C@@H](CCN)C(=O)N[C@H](C(=O)N[C@@H](CCN)C(=O)N[C@H]1CCNC(=O)[C@H]([C@@H](C)O)NC(=O)[C@H](CCN)NC(=O)[C@H](CCN)NC(=O)[C@H](CC(C)C)NC(=O)[C@@H](CC(C)C)NC(=O)[C@H](CCN)NC1=O)[C@@H](C)O` (stereo partly drawn) [CST, colistin] ({Heptanoyl(5-Me)}-[Dab]T[Dab][Dab][Dab][dL]L[Dab][Dab]T; lactam 4-C), for which the MIC with Escherichia coli ec309 (EC309, read-out: CST MIC) was 1 µg/mL (≈ 0.865 µM); in experiment [1] (ATCC35218, read-out: CST MIC), 2 µg/mL (≈ 1.73 µM); in experiment [2] (95882CW2011, read-out: CST MIC) it was 0.5 µg/mL (≈ 0.433 µM); with Escherichia coli ec302 (EC302, read-out: CST MIC) it was 0.5 µg/mL (≈ 0.433 µM); in the experiment with Escherichia coli ec310 (EC310, read-out: CST MIC) it was 1 µg/mL (≈ 0.865 µM); in experiment [3] (70122CW2007, read-out: CST MIC), 1 µg/mL (≈ 0.865 µM). Besides, the MIC in experiment [4] (ATCCBAA2471, read-out: CST MIC) was 1 µg/mL (≈ 0.865 µM); with Escherichia coli ec305 (EC305, read-out: CST MIC), 0.5 µg/mL (≈ 0.433 µM); in the experiment on Escherichia coli ec308 (EC308, read-out: CST MIC) it was 0.5 µg/mL (≈ 0.433 µM); in the experiment with E. coli ATCC 25922 (ATCC25922, read-out: CST MIC), 1 µg/mL (≈ 0.865 µM).
Consider `CC(C)(O/N=C(\C(=O)N[C@@H]1C(=O)N2C(C(=O)[O-])=C(C[n+]3ccccc3)CS[C@H]12)c1csc(N)n1)C(=O)O` [CAZ, ceftazidime], for which the MIC with Escherichia coli ec309 (EC309, read-out: CAZ MIC) was 64 µg/mL (≈ 117 µM); in [1] (ATCC35218, read-out: CAZ MIC), 0.25 µg/mL (≈ 0.457 µM); in [2] (95882CW2011, read-out: CAZ MIC), 128 µg/mL (≈ 234 µM); in the experiment on Escherichia coli ec302 (EC302, read-out: CAZ MIC), over 128 µg/mL; with Escherichia coli ec310 (EC310, read-out: CAZ MIC), 64 µg/mL (≈ 117 µM); in [3] (70122CW2007, read-out: CAZ MIC) it was 64 µg/mL (≈ 117 µM). Also, the MIC in [4] (ATCCBAA2471, read-out: CAZ MIC) was over 128 µg/mL; with Escherichia coli ec305 (EC305, read-out: CAZ MIC) it was 1 µg/mL (≈ 1.83 µM); in the experiment with Escherichia coli ec308 (EC308, read-out: CAZ MIC), 128 µg/mL (≈ 234 µM); in the experiment with E. coli ATCC 25922 (ATCC25922, read-out: CAZ MIC) it was 0.12 µg/mL (≈ 0.22 µM).
Regarding `C[C@@H](O)[C@H]1C(=O)N2C(C(=O)O)=C(SCCNC=N)C[C@H]12` [IMI, imipenem], the MIC in experiment [5] was found to be 1 µg/mL (≈ 3.34 µM).

The record behind these values is doi:10.1101/2025.08.21.671483v1, “In vitro and in vivo activity profiles of broad-spectrum bacterial ATP synthase inhibitors” (biorxiv, 2025).
